Data reported in the supplement of paper PMC10733146.

Assays:
Assay in all cases: viability relative to DMSO control (fraction); higher = less drug effect (more viable cells)
Settings in all cases: 48 h
[1] = test system: primary AML patient cells (S002)
Outline: (§1)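 Compounds were pre-plated at five concentrations, one well each, in 384-well plates, and primary mononuclear tumour cells were plated on them at 4 × 10^4 cells per well. The cells, fresh or cryopreserved, had been Ficoll-isolated from blood or bone marrow or taken from processed lymph node. After 48 h at 37 °C and 5% CO2 in RPMI-1640 with penicillin/streptomycin, L-glutamine and human serum, viability was read as CellTiter-Glo luminescence relative to the median of 16 inner DMSO wells.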

[2] = test system: primary AML patient cells (S009)
Outline: as §1

[3] = test system: primary AML patient cells (S011)
Outline: as §1

[4] = test system: primary AML patient cells (S012)
Outline: as §1

[5] = test system: primary AML patient cells (S017)
Outline: as §1

[6] = test system: primary AML patient cells (S019)
Outline: as §1

[7] = test system: primary AML patient cells (S021)
Outline: as §1

[8] = test system: primary AML patient cells (S025)
Outline: as §1

[9] = test system: primary AML patient cells (S037)
Outline: as §1

[10] = test system: primary AML patient cells (S081)
Outline: as §1

[11] = test system: primary AML patient cells (S085)
Outline: as §1

[12] = test system: primary AML patient cells (S091)
Outline: as §1

[13] = test system: primary B-PLL patient cells (S016)
Outline: as §1

[14] = test system: primary BL patient cells (S005)
Outline: as §1

[15] = test system: primary FL patient cells (S022)
Outline: as §1

[16] = test system: primary FL patient cells (S087)
Outline: as §1

[17] = test system: primary MCL patient cells (S041)
Outline: as §1

[18] = test system: primary MCL patient cells (S053)
Outline: as §1

[19] = test system: primary MCL patient cells (S068)
Outline: as §1

[20] = test system: primary T-PLL patient cells (S008)
Outline: as §1

CC#CC(=O)N1CCC[C@H]1c1nc(-c2ccc(C(=O)Nc3ccccn3)cc2)c2c(N)nccn12 [Acalabrutinib (ACP-196)]
viability ([1]; 0.008 µM): 0.98
viability ([1]; 0.04 µM): 1.15
viability ([1]; 0.2 µM): 1.03
viability ([1]; 1 µM): 0.952
viability ([1]; 5 µM): 1.04
viability ([2]; 0.008 µM): 1.19
viability ([2]; 0.04 µM): 1.11
viability ([2]; 0.2 µM): 1.16
viability ([2]; 1 µM): 1.09
viability ([2]; 5 µM): 1.12
viability ([3]; 0.008 µM): 1.03
viability ([3]; 0.04 µM): 1.02
viability ([3]; 0.2 µM): 1.01
viability ([3]; 1 µM): 0.864
viability ([3]; 5 µM): 1.01
viability ([4]; 0.008 µM): 1.08
viability ([4]; 0.04 µM): 1.16
viability ([4]; 0.2 µM): 1.14
viability ([4]; 1 µM): 1.16
viability ([4]; 5 µM): 1.21
viability ([5]; 0.008 µM): 1.32
viability ([5]; 0.04 µM): 1.1
viability ([5]; 0.2 µM): 1.15
viability ([5]; 1 µM): 1.36
viability ([5]; 5 µM): 0.997
viability ([6]; 0.008 µM): 1.09
viability ([6]; 0.04 µM): 1.2
viability ([6]; 0.2 µM): 1.08
viability ([6]; 1 µM): 1.12
viability ([6]; 5 µM): 1.06
viability ([7]; 0.008 µM): 1.13
viability ([7]; 0.04 µM): 1.05
viability ([7]; 0.2 µM): 1.13
viability ([7]; 1 µM): 1.1
viability ([7]; 5 µM): 1.03
viability ([8]; 0.008 µM): 1.06
viability ([8]; 0.04 µM): 1.26
viability ([8]; 0.2 µM): 1.04
viability ([8]; 1 µM): 1.05
viability ([8]; 5 µM): 1.05
viability ([9]; 0.008 µM): 1.07
viability ([9]; 0.04 µM): 1.62
viability ([9]; 0.2 µM): 1.07
viability ([9]; 1 µM): 1.22
viability ([9]; 5 µM): 1.05
viability ([10]; 0.008 µM): 1.01
viability ([10]; 0.04 µM): 1.05
viability ([10]; 0.2 µM): 0.985
viability ([10]; 1 µM): 1.02
viability ([10]; 5 µM): 1.02
viability ([11]; 0.008 µM): 1.05
viability ([11]; 0.04 µM): 1.14
viability ([11]; 0.2 µM): 1.01
viability ([11]; 1 µM): 0.989
viability ([11]; 5 µM): 1.02
viability ([12]; 0.008 µM): 0.945
viability ([12]; 0.04 µM): 1.06
viability ([12]; 0.2 µM): 0.979
viability ([12]; 1 µM): 1.01
viability ([12]; 5 µM): 1.07
viability ([13]; 0.008 µM): 0.748
viability ([13]; 0.04 µM): 0.627
viability ([13]; 0.2 µM): 0.601
viability ([13]; 1 µM): 0.549
viability ([13]; 5 µM): 0.6
viability ([14]; 0.008 µM): 1.07
viability ([14]; 0.04 µM): 1.15
viability ([14]; 0.2 µM): 1.05
viability ([14]; 1 µM): 1.17
viability ([14]; 5 µM): 1.08
viability ([15]; 0.008 µM): 1.1
viability ([15]; 0.04 µM): 1.12
viability ([15]; 0.2 µM): 1.11
viability ([15]; 1 µM): 1.09
viability ([15]; 5 µM): 1.05
viability ([16]; 0.008 µM): 1.08
viability ([16]; 0.04 µM): 1.03
viability ([16]; 0.2 µM): 1.07
viability ([16]; 1 µM): 0.994
viability ([16]; 5 µM): 1.04
viability ([17]; 0.008 µM): 1
viability ([17]; 0.04 µM): 1
viability ([17]; 0.2 µM): 0.859
viability ([17]; 1 µM): 0.899
viability ([17]; 5 µM): 0.855
viability ([18]; 0.008 µM): 0.711
viability ([18]; 0.04 µM): 0.636
viability ([18]; 0.2 µM): 0.656
viability ([18]; 1 µM): 0.587
viability ([18]; 5 µM): 0.66
viability ([19]; 0.008 µM): 0.878
viability ([19]; 0.04 µM): 0.805
viability ([19]; 0.2 µM): 0.788
viability ([19]; 1 µM): 0.767
viability ([19]; 5 µM): 0.785
viability ([20]; 0.008 µM): 1.11
viability ([20]; 0.04 µM): 1.01
viability ([20]; 0.2 µM): 1.08
viability ([20]; 1 µM): 0.989
viability ([20]; 5 µM): 1.13

CNC(=O)c1cc(Oc2ccc(NC(=O)Nc3ccc(Cl)c(C(F)(F)F)c3)cc2)ccn1 [Sorafenib]
viability ([1]; 0.024 µM): 0.941
viability ([1]; 0.12 µM): 1.07
viability ([1]; 0.6 µM): 1.09
viability ([1]; 3 µM): 1.29
viability ([1]; 15 µM): 0.601
viability ([2]; 0.024 µM): 0.947
viability ([2]; 0.12 µM): 0.828
viability ([2]; 0.6 µM): 0.869
viability ([2]; 3 µM): 0.985
viability ([2]; 15 µM): 0.906
viability ([3]; 0.024 µM): 0.966
viability ([3]; 0.12 µM): 1.02
viability ([3]; 0.6 µM): 0.972
viability ([3]; 3 µM): 0.875
viability ([3]; 15 µM): 0.715
viability ([4]; 0.024 µM): 0.958
viability ([4]; 0.12 µM): 0.991
viability ([4]; 0.6 µM): 1.05
viability ([4]; 3 µM): 1.01
viability ([4]; 15 µM): 1.09
viability ([5]; 0.024 µM): 0.955
viability ([5]; 0.12 µM): 0.988
viability ([5]; 0.6 µM): 0.935
viability ([5]; 3 µM): 1.04
viability ([5]; 15 µM): 0.927
viability ([6]; 0.024 µM): 0.833
viability ([6]; 0.12 µM): 1.18
viability ([6]; 0.6 µM): 0.846
viability ([6]; 3 µM): 1.11
viability ([6]; 15 µM): 0.835
viability ([7]; 0.024 µM): 0.995
viability ([7]; 0.12 µM): 1.09
viability ([7]; 0.6 µM): 1.07
viability ([7]; 3 µM): 1.12
viability ([7]; 15 µM): 0.888
viability ([8]; 0.024 µM): 0.988
viability ([8]; 0.12 µM): 1.02
viability ([8]; 0.6 µM): 1.06
viability ([8]; 3 µM): 1.13
viability ([8]; 15 µM): 0.813
viability ([9]; 0.024 µM): 0.961
viability ([9]; 0.12 µM): 1.06
viability ([9]; 0.6 µM): 1.05
viability ([9]; 3 µM): 1.05
viability ([9]; 15 µM): 1.09
viability ([10]; 0.024 µM): 0.918
viability ([10]; 0.12 µM): 0.958
viability ([10]; 0.6 µM): 1.03
viability ([10]; 3 µM): 0.99
viability ([10]; 15 µM): 1.06
viability ([11]; 0.024 µM): 1.09
viability ([11]; 0.12 µM): 1.06
viability ([11]; 0.6 µM): 0.916
viability ([11]; 3 µM): 1.12
viability ([11]; 15 µM): 1.03
viability ([12]; 0.024 µM): 0.929
viability ([12]; 0.12 µM): 1.13
viability ([12]; 0.6 µM): 1.34
viability ([12]; 3 µM): 1.98
viability ([12]; 15 µM): 1.46
viability ([13]; 0.024 µM): 0.964
viability ([13]; 0.12 µM): 1.05
viability ([13]; 0.6 µM): 1.01
viability ([13]; 3 µM): 1
viability ([13]; 15 µM): 0.978
viability ([14]; 0.024 µM): 0.839
viability ([14]; 0.12 µM): 0.905
viability ([14]; 0.6 µM): 0.92
viability ([14]; 3 µM): 0.957
viability ([14]; 15 µM): 0.885
viability ([15]; 0.024 µM): 1.05
viability ([15]; 0.12 µM): 1.01
viability ([15]; 0.6 µM): 1.06
viability ([15]; 3 µM): 0.999
viability ([15]; 15 µM): 1
viability ([16]; 0.024 µM): 1.01
viability ([16]; 0.12 µM): 1.04
viability ([16]; 0.6 µM): 1.08
viability ([16]; 3 µM): 1.06
viability ([16]; 15 µM): 1.04
viability ([17]; 0.024 µM): 0.981
viability ([17]; 0.12 µM): 1.01
viability ([17]; 0.6 µM): 1.04
viability ([17]; 3 µM): 1.05
viability ([17]; 15 µM): 0.95
viability ([19]; 0.024 µM): 0.919
viability ([19]; 0.12 µM): 1.03
viability ([19]; 0.6 µM): 1.03
viability ([19]; 3 µM): 1.22
viability ([19]; 15 µM): 1.66
viability ([20]; 0.024 µM): 0.955
viability ([20]; 0.12 µM): 0.997
viability ([20]; 0.6 µM): 1.02
viability ([20]; 3 µM): 0.973
viability ([20]; 15 µM): 0.948
